In PubChem BioAssay AID1919001 (Molecular Pharmacology Branch, DTP, NCI, 2023):

Tested on: 699152-130-R-J1-PDC complex spheroid growth
Experiment: Anticancer human tumor 699152-130-R-J1-PDC patient-derived pancreatic carcinoma cell line growth inhibition [AhR]
Settings: for IC50: curve of first compound; for viability, T/C: stronger effect = lower value
Procedure, shortened: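 Spheroids combined tumor cells with HUVEC endothelial cells and human MSCs as stroma. AhR antagonists were paired with standard or investigational drugs, each dosed in half-log steps down from near clinical Cmax, or from 10 microM where Cmax was unknown.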

[1] = second compound 0.1 µM, first compound 0.0316 µM
[2] = second compound 0.1 µM, first compound 0.1 µM
[3] = second compound 0.1 µM, first compound 0.316 µM
[4] = second compound 0.1 µM, first compound 1 µM
[5] = second compound 0.1 µM, first compound 3.16 µM
[6] = second compound 0.1 µM, first compound 10 µM
[7] = second compound 0.316 µM, first compound 0.0316 µM
[8] = second compound 0.316 µM, first compound 0.1 µM
[9] = second compound 0.316 µM, first compound 0.316 µM
[10] = second compound 0.316 µM, first compound 1 µM
[11] = second compound 0.316 µM, first compound 3.16 µM
[12] = second compound 0.316 µM, first compound 10 µM
[13] = second compound 1 µM, first compound 0.0316 µM
[14] = second compound 1 µM, first compound 0.1 µM
[15] = second compound 1 µM, first compound 0.316 µM
[16] = second compound 1 µM, first compound 1 µM
[17] = second compound 1 µM, first compound 3.16 µM
[18] = second compound 1 µM, first compound 10 µM
[19] = second compound 3.16 µM, first compound 0.0316 µM
[20] = second compound 3.16 µM, first compound 0.1 µM
[21] = second compound 3.16 µM, first compound 0.316 µM
[22] = second compound 3.16 µM, first compound 1 µM
[23] = second compound 3.16 µM, first compound 3.16 µM
[24] = second compound 3.16 µM, first compound 10 µM
[25] = second compound 10 µM, first compound 0.0316 µM
[26] = second compound 10 µM, first compound 0.1 µM
[27] = second compound 10 µM, first compound 0.316 µM
[28] = second compound 10 µM, first compound 1 µM
[29] = second compound 10 µM, first compound 3.16 µM
[30] = second compound 10 µM, first compound 10 µM
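Note: compound exposure lasted 7 days after spheroids had grown for 3 days.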

O=C(c1cc(Cc2n[nH]c(=O)c3ccccc23)ccc1F)N1CCN(C(=O)C2CC2)CC1 + Cc1cncc(-c2nc(NCCc3c[nH]c4ccccc34)c3ncn(C(C)C)c3n2)c1
IC50 (second compound 0.1 µM): > 10 µM | IC50 (second compound 0.316 µM): > 10 µM | IC50 (second compound 1 µM): > 10 µM | IC50 (second compound 3.16 µM): > 10 µM | IC50 (second compound 10 µM): < 0.0316 µM | viability, T/C [1]: 119% | viability, T/C [2]: 104% | viability, T/C [3]: 105% | viability, T/C [4]: 97.6% | viability, T/C [5]: 120% | viability, T/C [6]: 82.9% | viability, T/C [7]: 104% | viability, T/C [8]: 101% | viability, T/C [9]: 111% | viability, T/C [10]: 105% | viability, T/C [11]: 95.3% | viability, T/C [12]: 90% | viability, T/C [13]: 119% | viability, T/C [14]: 120% | viability, T/C [15]: 119% | viability, T/C [16]: 116% | viability, T/C [17]: 107% | viability, T/C [18]: 106% | viability, T/C [19]: 96.8% | viability, T/C [20]: 93.7% | viability, T/C [21]: 89.7% | viability, T/C [22]: 90% | viability, T/C [23]: 95.1% | viability, T/C [24]: 93.4% | viability, T/C [25]: 9.79% | viability, T/C [26]: 10.4% | viability, T/C [27]: 12.8% | viability, T/C [28]: 11.7% | viability, T/C [29]: 11.9% | viability, T/C [30]: 15.3%

Nc1ncn(C2CC(O)C(CO)S2)c(=O)n1 (stereo not given) + CC(CO)NC(=O)c1cc(-c2ccc(Cl)cc2)nn(-c2cnn(C)c2)c1=O
IC50 (second compound 0.1 µM): > 0.3 µM | IC50 (second compound 0.316 µM): > 0.3 µM | IC50 (second compound 1 µM): > 0.3 µM | IC50 (second compound 3.16 µM): > 0.3 µM | IC50 (second compound 10 µM): > 0.3 µM | viability, T/C (second compound 0.1 µM, first compound 0.000949 µM): 98% | viability, T/C (second compound 0.1 µM, first compound 0.003 µM): 104% | viability, T/C (second compound 0.1 µM, first compound 0.00949 µM): 85.7% | viability, T/C (second compound 0.1 µM, first compound 0.03 µM): 103% | viability, T/C (second compound 0.1 µM, first compound 0.0949 µM): 97.8% | viability, T/C (second compound 0.1 µM, first compound 0.3 µM): 94.2% | viability, T/C (second compound 0.316 µM, first compound 0.000949 µM): 89.6% | viability, T/C (second compound 0.316 µM, first compound 0.003 µM): 111% | viability, T/C (second compound 0.316 µM, first compound 0.00949 µM): 105% | viability, T/C (second compound 0.316 µM, first compound 0.03 µM): 93.1% | viability, T/C (second compound 0.316 µM, first compound 0.0949 µM): 93.8% | viability, T/C (second compound 0.316 µM, first compound 0.3 µM): 87.1% | viability, T/C (second compound 1 µM, first compound 0.000949 µM): 93.8% | viability, T/C (second compound 1 µM, first compound 0.003 µM): 101% | viability, T/C (second compound 1 µM, first compound 0.00949 µM): 89.1% | viability, T/C (second compound 1 µM, first compound 0.03 µM): 95.3% | viability, T/C (second compound 1 µM, first compound 0.0949 µM): 94.1% | viability, T/C (second compound 1 µM, first compound 0.3 µM): 86.1% | viability, T/C (second compound 3.16 µM, first compound 0.000949 µM): 86.3% | viability, T/C (second compound 3.16 µM, first compound 0.003 µM): 88% | viability, T/C (second compound 3.16 µM, first compound 0.00949 µM): 91.8% | viability, T/C (second compound 3.16 µM, first compound 0.03 µM): 88.9% | viability, T/C (second compound 3.16 µM, first compound 0.0949 µM): 90.1% | viability, T/C (second compound 3.16 µM, first compound 0.3 µM): 85% | viability, T/C (second compound 10 µM, first compound 0.000949 µM): 80.7% | viability, T/C (second compound 10 µM, first compound 0.003 µM): 91.8% | viability, T/C (second compound 10 µM, first compound 0.00949 µM): 84.6% | viability, T/C (second compound 10 µM, first compound 0.03 µM): 87.2% | viability, T/C (second compound 10 µM, first compound 0.0949 µM): 87% | viability, T/C (second compound 10 µM, first compound 0.3 µM): 86%

COc1ccc([C@@H](O)c2cc(-c3ncnc4cc(N5CCOCC5)ccc34)c(F)cc2Cl)nn1 + Cc1cncc(-c2nc(NCCc3c[nH]c4ccccc34)c3ncn(C(C)C)c3n2)c1
IC50 (second compound 0.1 µM): 6.29 µM | IC50 (second compound 0.316 µM): 5.2 µM | IC50 (second compound 1 µM): 7.45 µM | IC50 (second compound 3.16 µM): 4.64 µM | IC50 (second compound 10 µM): < 0.0316 µM | viability, T/C [1]: 100% | viability, T/C [2]: 104% | viability, T/C [3]: 89.4% | viability, T/C [4]: 78.9% | viability, T/C [5]: 65.4% | viability, T/C [6]: 40.1% | viability, T/C [7]: 95% | viability, T/C [8]: 102% | viability, T/C [9]: 89.2% | viability, T/C [10]: 84.4% | viability, T/C [11]: 59.7% | viability, T/C [12]: 36.8% | viability, T/C [13]: 104% | viability, T/C [14]: 103% | viability, T/C [15]: 109% | viability, T/C [16]: 91% | viability, T/C [17]: 76.2% | viability, T/C [18]: 41.2% | viability, T/C [19]: 55.6% | viability, T/C [20]: 66% | viability, T/C [21]: 60.6% | viability, T/C [22]: 59.8% | viability, T/C [23]: 54.3% | viability, T/C [24]: 40.2% | viability, T/C [25]: 4.98% | viability, T/C [26]: 5.41% | viability, T/C [27]: 4.5% | viability, T/C [28]: 6.28% | viability, T/C [29]: 6.8% | viability, T/C [30]: 9.11%
